SMILES strings stand for the structures.

The target of the test is Replicase polyprotein 1ab (Severe acute respiratory syndrome coronavirus, UniProt P0C6X7). Put plainly: SARS-CoV 3CL Protease Inhibition Assay. As to conditions: pH 7; 25 °C. Here is the method:
The effects of compound on enzyme activity were measured by using a fluorogenic peptide cleavage assay. Enhanced fluorescence caused by cleavage of the substrate peptide was monitored at 538 nm with excitation at 355 nm. The Ki measurements were performed at two fixed inhibitor concentrations and various substrate concentrations.
For orientation: IC50 means the point on the concentration scale where inhibition reaches its midpoint. In turn, `O=C(Nc1ccc([N+](=O)[O-])cc1Cl)c1cc(Cl)ccc1O` [5-chloro-N-(2-chloro-4-nitrophenyl)-2-hydroxybenzamide] registered an IC50 above 50 µM. In general, Ki refers to a dissociation constant, usually derived from enzyme kinetics or from competition with a known ligand. `O=C(C[C@H](O)C(=O)N[C@@H](Cc1ccccc1)C(=O)Nc1ccc([N+](=O)[O-])cc1Cl)N[C@@H](Cc1ccccc1)C(=O)Nc1ccc([N+](=O)[O-])cc1Cl` [(2S)-N,N'-bis[(1S)-1-[(2-chloro-4-nitrophenyl)carbamoyl]-2-phenylethyl]-2-hydroxybutanediamide] yielded a 50% inhibitory concentration (IC50) of 4 µM and a Ki of 3.1 µM. For `Cc1cc(C(=O)N[C@H](C(=O)N[C@@H](Cc2ccccc2)C(=O)N[C@@H](Cc2ccccc2)C(=O)Nc2ccc([N+](=O)[O-])cc2Cl)C(C)C)[n-][o+]1` [(2S)-N-[(1S)-1-{[(1S)-1-[(2-chloro-4-nitrophenyl)carbamoyl]-2-phenylethyl]carbamoyl}-2-phenylethyl]-3-methyl-2-[(5-methyl-1,2-oxazol-3-yl)formamido]butanamide] the same measures were 7 µM and 2.9 µM. For `Cc1cc(C(=O)N[C@H](C(=O)N[C@@H](Cc2ccccc2)C(=O)N[C@H](C(=O)N[C@@H](Cc2ccccc2)C(=O)Nc2ccc([N+](=O)[O-])cc2Cl)C(C)O)C(C)C)no1` (stereo partly drawn) [N-[(5-methylisoxazol-3-yl)carbonyl]-L-valyl-L-phenylalanyl-L-threonyl-N-(2-chloro-4-nitrophenyl)-L-phenylalaninamide] the same measures were 5 µM and 1.61 µM. Turning to `CC(C)C[C@H](NC(=O)[C@@H](NC(=O)OC(C)(C)C)C(C)C)C(=O)N[C@@H](Cc1ccccc1)C(=O)Nc1ccc([N+](=O)[O-])cc1Cl` [tert-butyl N-[(1S)-1-{[(1S)-1-{[(1S)-1-[(2-chloro-4-nitrophenyl)carbamoyl]-2-phenylethyl]carbamoyl}-3-methylbutyl]carbamoyl}-2-methylpropyl]carbamate], the IC50 was above 10 µM.

(Values after BindingDB's records for doi:10.1021/jm050184y (National Taiwan University, 2005).)
